From PubChem BioAssay AID256 (DTP/NCI, 2004)
Inconclusive results and toxic doses are left out. How the source made its calls: active means survival T/C of 150% or more; inactive means T/C below 125% in these data.

System: CD2F1 mice, L1210 leukemia ip, survival T/C
Assay: NCI In Vivo Anticancer Drug Screen. Data for tumor model L1210 Leukemia (intraperitoneal) in CD2F1 (CDF1) mice
Settings: higher = longer survival
Method in brief: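 Each value reflects a quotient of treated over vehicle control outcomes in mice with a transplanted tumor.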

[1] = endpoint: mean survival time, dose: 12.5 mg/kg/injection, schedule: Q01DX009 (ip), vehicle: saline with Tween-80
[2] = endpoint: mean survival time, dose: 25.0 mg/kg/injection, schedule: Q01DX009 (ip), vehicle: saline with Tween-80
[3] = endpoint: mean survival time, dose: 100.0 mg/kg/injection, schedule: Q01DX009 (ip), vehicle: saline with Tween-80
[4] = endpoint: mean survival time, dose: 200.0 mg/kg/injection, schedule: Q01DX009 (ip), vehicle: saline with Tween-80
[5] = endpoint: mean survival time, dose: 100.0 mg/kg/injection, schedule: Q04DX003 (ip), vehicle: saline with Tween-80
[6] = endpoint: mean survival time, dose: 200.0 mg/kg/injection, schedule: Q04DX003 (ip), vehicle: saline with Tween-80
[7] = endpoint: mean survival time, dose: 100.0 mg/kg/injection, schedule: Q01DX001 (ip), vehicle: saline with Tween-80
[8] = endpoint: mean survival time, dose: 400.0 mg/kg/injection, schedule: Q01DX001 (ip), vehicle: saline with Tween-80
[9] = endpoint: mean survival time, dose: 100.0 mg/kg/injection, schedule: Q04DX002 (ip), vehicle: saline with Tween-80
[10] = endpoint: mean survival time, dose: 200.0 mg/kg/injection, schedule: Q04DX002 (ip), vehicle: saline with Tween-80
[11] = endpoint: mean survival time, dose: 400.0 mg/kg/injection, schedule: Q04DX002 (ip), vehicle: saline with Tween-80
[12] = endpoint: mean survival time, dose: 100.0 mg/kg/injection, schedule: Q01DX001 (ip), vehicle: saline
[13] = endpoint: mean survival time, dose: 200.0 mg/kg/injection, schedule: Q01DX001 (ip), vehicle: saline
[14] = endpoint: mean survival time, dose: 400.0 mg/kg/injection, schedule: Q01DX001 (ip), vehicle: saline
[15] = endpoint: mean survival time, dose: 200.0 mg/kg/injection, schedule: Q01DX001 (ip), vehicle: saline with Tween-80
[16] = endpoint: mean survival time, dose: 25.0 mg/kg/injection, schedule: Q04DX003 (ip), vehicle: saline with Tween-80
[17] = endpoint: mean survival time, dose: 50.0 mg/kg/injection, schedule: Q04DX003 (ip), vehicle: saline with Tween-80
[18] = endpoint: mean survival time, dose: 400.0 mg/kg/injection, schedule: Q04DX003 (ip), vehicle: saline with Tween-80
[19] = endpoint: mean survival time, dose: 400.0 mg/kg/injection, schedule: Q01DX009 (ip), vehicle: saline with Tween-80

Measured: T/C

CN1CCN(c2ncnc3c2ncn3C2OC(CO)C(O)C2O)CC1 (stereo unspecified)
inactive: endpoint: mean survival time, dose: 12.5 mg/kg/injection, schedule: Q01DX005 (ip), vehicle: water 106 % of control | endpoint: mean survival time, dose: 25.0 mg/kg/injection, schedule: Q01DX005 (ip), vehicle: water 106 % of control | endpoint: mean survival time, dose: 50.0 mg/kg/injection, schedule: Q01DX005 (ip), vehicle: water 112 % of control | endpoint: mean survival time, dose: 100.0 mg/kg/injection, schedule: Q01DX005 (ip), vehicle: water 106 % of control | endpoint: mean survival time, dose: 200.0 mg/kg/injection, schedule: Q01DX005 (ip), vehicle: water 102 % of control

CC1(C)N=C(N)N=C(N)N1c1cccc(CCCCOc2ccccc2)c1
inactive: endpoint: mean survival time, dose: 6.25 mg/kg/injection, schedule: Q01DX009 (ip), vehicle: saline with Tween-80 101 % of control | [1] 111 % of control | [2] 108 % of control

Fc1c(F)c(F)c(-c2c(F)c(F)c(-c3c(F)c(F)c(-c4c(F)c(F)c(F)c(F)c4F)c(F)c3F)c(F)c2F)c(F)c1F
inactive: [3] 96 % of control | [4] 88 % of control

COC(=O)c1cncn1C(C)c1cccc2ccccc12 (stereo unspecified)
inactive: [5] 108 % of control | [6] 100 % of control

c1ccc2c3c(ccc2c1)-c1oncc1CC3
inactive: endpoint: mean survival time, dose: 100.0 mg/kg/injection, schedule: Q04DX003 (ip), vehicle: saline 98 % of control | endpoint: mean survival time, dose: 200.0 mg/kg/injection, schedule: Q04DX003 (ip), vehicle: saline 91 % of control | endpoint: mean survival time, dose: 400.0 mg/kg/injection, schedule: Q04DX003 (ip), vehicle: saline 102 % of control

N#Cc1c2ccccc2nn1C1OC(CO)C(O)C1O (stereo unspecified)
inactive: endpoint: mean survival time, dose: 100.0 mg/kg/injection, schedule: Q01DX005 (ip), vehicle: saline 109 % of control | endpoint: mean survival time, dose: 200.0 mg/kg/injection, schedule: Q01DX005 (ip), vehicle: saline 98 % of control

NC(=O)COS(=O)(=O)O
inactive: endpoint: mean survival time, dose: 100.0 mg/kg/injection, schedule: Q01DX009 (ip), vehicle: saline 104 % of control | endpoint: mean survival time, dose: 200.0 mg/kg/injection, schedule: Q01DX009 (ip), vehicle: saline 104 % of control | endpoint: mean survival time, dose: 400.0 mg/kg/injection, schedule: Q01DX009 (ip), vehicle: saline 108 % of control

OCCOc1ccc2ccccc2c1-c1c(OCCOc2ccc3ccccc3c2-c2c(OCCO)ccc3ccccc23)ccc2ccccc12
inactive: endpoint: mean survival time, dose: 25.0 mg/kg/injection, schedule: Q01DX001 (ip), vehicle: saline with Tween-80 95 % of control | endpoint: mean survival time, dose: 50.0 mg/kg/injection, schedule: Q01DX001 (ip), vehicle: saline with Tween-80 91 % of control | [7] 86 % of control | [8] 86 % of control

NC(=O)c1ccccc1CO
inactive: [9] 102 % of control | [10] 98 % of control | [11] 98 % of control

CC1C=C(Br)C(=O)C(n2cnc3c(=O)n(C)c(=O)n(C)c32)O1 (stereo unspecified)
inactive: endpoint: mean survival time, dose: 12.5 mg/kg/injection, schedule: Q01DX005 (ip), vehicle: distilled water + Tween-80 100 % of control | endpoint: mean survival time, dose: 25.0 mg/kg/injection, schedule: Q01DX005 (ip), vehicle: distilled water + Tween-80 97 % of control

NC(=O)C(c1cccs1)c1cccs1
inactive: [9] 93 % of control | [10] 87 % of control | [11] 90 % of control

CN1CCc2cc3c(cc2C1)OCO3
inactive: endpoint: mean survival time, dose: 75.0 mg/kg/injection, schedule: Q01DX001 (ip), vehicle: other 98 % of control | [12] 97 % of control | endpoint: mean survival time, dose: 150.0 mg/kg/injection, schedule: Q01DX001 (ip), vehicle: other 92 % of control

CCOC(=O)C1CCCNC1=O (stereo unspecified)
inactive: [12] 101 % of control | [13] 94 % of control | [14] 95 % of control

N#CC(C#N)C(O)c1c[nH]c2ccccc12 (stereo unspecified)
inactive: [7] 102 % of control | [15] 96 % of control | [8] 94 % of control

CC(=O)c1ccco1
inactive: [1] 96 % of control | [2] 95 % of control | [16] 104 % of control | endpoint: mean survival time, dose: 50.0 mg/kg/injection, schedule: Q01DX009 (ip), vehicle: saline with Tween-80 98 % of control | [17] 122 % of control

O=S(=O)(F)c1ccc(S)c(Cl)c1Cl
inactive: [9] 98 % of control

COc1ccccc1NC(=O)OCC#CCOC(=O)Nc1ccccc1OC
inactive: endpoint: mean survival time, dose: 100.0 mg/kg/injection, schedule: Q01DX009 (ip), vehicle: Klucel (hydroxypropylcellulose) (HPC) 91 % of control | endpoint: mean survival time, dose: 200.0 mg/kg/injection, schedule: Q01DX009 (ip), vehicle: Klucel (hydroxypropylcellulose) (HPC) 91 % of control | endpoint: mean survival time, dose: 400.0 mg/kg/injection, schedule: Q01DX009 (ip), vehicle: Klucel (hydroxypropylcellulose) (HPC) 92 % of control

CC(C)(C)N1CC1
inactive: [9] 102 % of control | [11] 94 % of control

COc1ccc(CC2(C#N)c3ccccc3C=CN2C(=O)c2ccccc2)c([N+](=O)[O-])c1OC (stereo unspecified)
inactive: [7] 95 % of control | [15] 97 % of control | [8] 95 % of control

CC(C)(C)C(=O)C#Cc1ccccc1
inactive: endpoint: mean survival time, dose: 25.0 mg/kg/injection, schedule: Q01DX009 (ip), vehicle: saline 94 % of control | endpoint: mean survival time, dose: 50.0 mg/kg/injection, schedule: Q01DX009 (ip), vehicle: saline 97 % of control

O=C(COc1ccc(Cl)cc1Cl)OCCI
inactive: [9] 97 % of control | [10] 102 % of control

[Cl][Pt+2][Cl].[NH-]c1ccc(S(N)(=O)=O)cc1.[NH-]c1ccc(S(N)(=O)=O)cc1
inactive: [16] 90 % of control | [17] 98 % of control | [5] 94 % of control | [6] 102 % of control | [18] 102 % of control

Cc1ccc(OCC2CO2)cc1 (stereo unspecified)
inactive: [12] 104 % of control | [13] 95 % of control | [14] 102 % of control

COc1ccc(CCNC(=O)C(c2ccccc2)c2ccccc2)cc1OC
inactive: [3] 97 % of control | [5] 103 % of control | [4] 90 % of control | [6] 101 % of control | [19] 92 % of control | [18] 100 % of control

Cc1c2ccccc2c(CN2CC(O)CC2C(=O)O)c2ccc3ccccc3c12 (stereo unspecified)
inactive: [5] 102 % of control | [6] 100 % of control | [18] 87 % of control

OC1(c2ccccc2)CCN(C/C=C/c2ccc(Cl)cc2)CC1
inactive: endpoint: median survival time, dose: 25.0 mg/kg/injection, schedule: Q04DX003 (ip), vehicle: saline with Tween-80 100 % of control | endpoint: median survival time, dose: 50.0 mg/kg/injection, schedule: Q04DX003 (ip), vehicle: saline with Tween-80 90 % of control

CC(=O)OC(OC(C)=O)c1cccc([N+](=O)[O-])c1
inactive: [3] 102 % of control | [4] 93 % of control | [19] 96 % of control
